Assay [1] has as its system LTB4 biosynthesis in human polymorphonuclear leukocytes (PMNs). Briefly: Inhibition of LTB4 biosynthesis in human polymorphonuclear leukocytes (PMNs). In kind it is cell-based. The following applies: Homo sapiens, Leukocyte, values with <: see footnote d, Table 1. The procedure:
Inhibition of LTB4, biosynthesis in human polymorphonuclear leukocytes (PMNs)
The inhibition of leukotriene biosynthesis is measured by determining whether and to what extent test compounds can inhibit LTB4 production from endogenous arachidonic acid in human peripheral blood leukocytes.
To 48-well tissue culture plates was added a solution of the test compound followed by addition of human polymorphonuclear leukocytes isolated from peripheral blood at a density of 1.5×10^6 cells/well. Culture plates were preincubated for fifteen minutes with shaking at 28° C. Cells were stimulated with calcium ionophore A23187 at a final concentration of 2.5 μM for an additional ten minutes. The reaction was terminated by the addition of an EGTA solution (10 mM final concentration)followed by centrifugation at 1500 rpm at 10° C. Supernatants were stored at -70° C. LTB4 levels were determined by RIA using a commercially available kit. Nonlinear regression analysis was used to calculate. IC50 values.
The following tables show % inhibition of LTB4 biosynthesis by compounds of the invention at test concentrations indicated, with the determined IC50 shown in μM.

The test system of assay [2] is leukotriene component of antigen-induced bronchoconstriction. Briefly: Antigen-Induced Bronchoconstriction in Guinea Pigs. Type of assay: in vivo, guinea pig (male Hartley). To be noted: aerosol, vs placebo treated controls. From the text:
Antigen-Induced Bronchoconstriction in Guinea Pigs
This model measures the ability of a compound to block the leukotriene component of antigen-induced bronchoconstriction. Male Hartley guinea pigs are actively sensitized to ovalbumin, pretreated with mepyramine and indomethacin (to block the histamine and cyclooxygenase metabolite components respectively), and test compound (by aerosol administration). The guinea pigs are challenged with antigen (inhaled ovalbumin). Pulmonary function is measured by oscillatory mechanics as described by W. W. Wolyniec et al. (Agents and Actions 1991, 34, 1/2, 73). Results are expressed as percent inhibition of bronchoconstriction (resistance) in the test compound treated guinea pigs compared to placebo treated controls.
*Refers to amount of test compound inhaled by gunea pig. Compounds
administered by aerosolized freon/ethanol solution from metered dose

Setting [3] is: Table 14, Miscellaneous Compounds.

The results in this text go back to patent publication US5552421A, “Leukotriene biosynthesis inhibitors” (Boehringer Ingelheim Pharmaceuticals, Inc., priority 1995, dated 1996).

What is called IC50 is the concentration needed to halve the response being measured.

Molecules are shown by their SMILES.

`c1ccc(C(CC2CCCCC2)Nc2nc3ccccc3o2)cc1` (stereo not shown) [Compound 51, 2-(2-Cyclohexyl-1-phenyl]ethylaminobenzoxazole] came in with an IC50 in assay [1] (Table 3, Phenyl) of 6.9 nM. Further, the “% Inhibition of bronchoconstriction (resistance)” value (“% Inhibition” for short) in assay [2] (274 micrograms inhaled) was 86%. With `COc1ccc(C(CC2CCCCC2)Nc2nc3ccccc3o2)cc1` (stereo not shown) [Compound 56], in assay [1] (Table 3, Phenyl), inhibition was half-maximal at 550 nM (IC50). Besides, in assay [2] (95 micrograms inhaled), the “% Inhibition” value is recorded as 43%. In turn, `Cc1ccc2oc(NC(CC3CCCCC3)c3ccccn3)nc2c1` (stereo not shown) [Compound 81] registered a half-inhibitory concentration (IC50) in assay [1] (Table 4, Pyridyl) of 3.1 nM. The “% Inhibition” value in assay [2] (2.8 micrograms inhaled) is recorded as 61%; in assay [2] (28 micrograms inhaled), 64%; in assay [2] (308 micrograms inhaled), 64%. `Cc1ccc2oc(NC(CC3CCCCC3)c3ccccn3)nc2n1` (stereo not shown) [Compound 165]: in assay [1] (Table 10, Oxazolopyridines), the IC50 is 26 nM. The “% Inhibition” value is listed as 0% in assay [2] (5.6 micrograms inhaled), 64% in assay [2] (28 micrograms inhaled) and 84% in assay [2] (274 micrograms inhaled). Compound `c1ccc(C(CC2CCCCC2)Nc2nc3cccnc3s2)cc1` (stereo not shown) [Compound 172, 2-[(2-Cyclohexyl-1-phenylethyl)amino]thiazolo[5,4-b]pyridine] had an IC50 in assay [1] (Table 11, Thiazolopyridines) of 27 nM. Same read-out and setting: then `c1cncc(C(CC2CCCCC2)Nc2nc3cccnc3s2)c1` (stereo not shown) [Compound 173], with 170 nM.

As to `c1ccc(C(CC2CCCCC2)Nc2nc3cccnc3s2)nc1` (stereo not shown) [Compound 174], inhibition in assay [1] (Table 11, Thiazolopyridines) was half-maximal at 27 nM (IC50). Compound `Cc1cnc2nc(NC(CC3CCCCC3)c3ccccn3)sc2c1` (stereo not shown) [Compound 184] had an IC50 in assay [1] (Table 11, Thiazolopyridines) of 31 nM. Still for that read-out and setting: then `Cc1nc2nc(NC(CC3CCCCC3)c3ccccn3)sc2cc1Br` (stereo not shown) [Compound 185], with 6.5 nM; and `Cc1nc2nc(NC(CC3CCCCC3)c3cccnc3)sc2cc1Br` (stereo not shown) [Compound 186], with 21 nM. In assay [1] (Table 11, Thiazolopyridines), `Cc1ccc2sc(NC(CC3CCCCC3)c3ccccn3)nc2n1` (stereo not shown) [Compound 187] displayed an IC50 of 13 nM. Compared with the last compound, the IC50 is about 1.6-fold lower.

`Clc1cnc2nc(NC(CC3CCCCC3)c3ccccn3)sc2c1` (stereo not shown) [Compound 188] gave an IC50 in assay [1] (Table 11, Thiazolopyridines) of 3.9 nM. Still for that read-out and setting: then `Fc1ccc(CC(Nc2nc3ncc(Cl)cc3s2)c2ccccn2)cc1` (stereo not shown) [Compound 189], with 28 nM; and `Cc1cnc2nc(NC(CC3CCCCC3)c3ccccc3)sc2c1` (stereo not shown) [Compound 191], with less than 1000 nM; and `Cc1cnc2nc(NC(Cc3ccc(F)cc3)c3ccccn3)sc2c1` (stereo not shown) [Compound 192], with less than 300 nM. For the compound `COC(=O)[C@H](Cc1cn(C)cn1)Nc1nc2cc(C(C)C)ccc2o1` [Compound 201], the IC50 in assay [1] (setting [3]) is less than 1000 nM. On the same count and under the same terms, the value for `CC(C)c1ccc2oc(NC(Cc3cccc(Cl)c3)c3nccn3C)nc2c1` (stereo not shown) [Compound 202] was less than 100 nM.
